Test results taken from US20210330611A1, “THERAPY FOR NEUROLOGICAL DISEASES/DISORDERS” (priority 2020, published 2021).
Values joined by “and” are separate entries in the source; they are usually repeats but may differ in a detail not shown here. Identical values can stand only once. Counter-ions that a name gives are not always drawn. Like-named read-outs stand apart in the source and are kept apart here.

Experiments:
[1] = test system: fibrin-induced microglia activation; assay: Image-based assay of fibrin-induced microglia activation (HTS and dose response); assay type: cell-based, rat; details: primary microglia HTS, fibrin stimulation; for inhibition at 10 µM: Rattus norvegicus, Microglia, read-out: Fibrin % inhibition
[2] = test system: LPS-induced microglia activation; assay: Image-based assay of LPS-induced microglia activation (HTS and dose response); assay type: cell-based, rat; details: for inhibition at 10 µM: Rattus norvegicus, Microglia, read-out: LPS % inhibition
[3] = test system: fibrin- and LPS-induced microglia activation; assay: cells; assay type: cell-based, rat
primary rat microglia [4] = test system: primary rat microglia
primary rat microglia [5] = assay: Cell toxicity (dead cells, size <150 μm2) in coated fibrin (cFib) assay; details: primary microglia HTS;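 also: share of dead cells sized under 150 µm2 at 10 µM in fibrin-stimulated microglia HTS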
[6] = primary microglia HTS, LPS stimulation, compounds at 10 μM
[7] = quadrant by fibrin and LPS inhibition, HTS at 10 μM
[8] = fibrin assay, dead cells (size <150 μm2)
[9] = cell size >800 μm2 as marker of activation
[10] = classification by fibrin and LPS inhibition in HTS
[11] = fibrin stimulation, cell size <150 μm2 as marker of toxicity
[12] = classification by fibrin and LPS inhibition, HTS at 10 μM
[13] = fibrin assay, dead cells (size <150 μm2), compounds at 10 μM
[14] = primary microglia HTS, LPS stimulation, compounds at 10 μM, 10 µM

SMILES: Nc1ncnc2c1ncn2[C@@H]1O[C@H](CO)[C@@H](O)[C@H]1O [Adenosine]
- inhibition at 10 µM ([1]; compounds at 10 μM): -6%
- inhibition at 10 µM [2, 6]: 3%
- Quadrant (FIG. 5b) [3, 7]: Q4
- LPS % cell toxicity (primary rat microglia [4]; rat): 1%
- Fibrin % cell toxicity (primary rat microglia [5]; [8]): 1%

SMILES: COc1ccc2nc3cc(Cl)ccc3c(Nc3cc(CN4CCCC4)c(O)c(CN4CCCC4)c3)c2n1.O=P(O)(O)O.O=P(O)(O)O.O=P(O)(O)O.O=P(O)(O)O [Pyronaridine Tetraphosphate]
- Fibrin % inhibition [1, 9]: 16%
- LPS % inhibition [2]: 9%
- Quadrant (FIG. 5b) [3, 10]: Q4
- LPS % cell toxicity (primary rat microglia [4]): 0%
- Fibrin % cell toxicity (primary rat microglia [5]; [11]): 1%

SMILES: Cc1nnc2n1-c1ccc(Cl)cc1C(c1ccccc1)=NC2 [Alprazolam]
- inhibition at 10 µM ([1]; compounds at 10 μM): 33%
- inhibition at 10 µM [2, 6]: 20%
- Quadrant (FIG. 5b) [3, 7]: Q4
- LPS % cell toxicity (primary rat microglia [4]; rat): 0%
- Fibrin % cell toxicity (primary rat microglia [5]; [8]): 1%

SMILES: CN(C)CCOC(C)(c1ccccc1)c1ccccn1 (stereo not drawn) [Doxylamine]
- inhibition at 10 µM ([1]; compounds at 10 μM): -45%
- inhibition at 10 µM [2, 6]: 17%
- Quadrant (FIG. 5b) [3, 12]: Q4
- LPS % cell toxicity (primary rat microglia [4]; rat): 0%
- Fibrin % cell toxicity (primary rat microglia [5]; [13]): 1%

SMILES: COc1ccc(C2CNC(=O)C2)cc1OC1CCCC1 (stereo not drawn) [Rolipram]
- inhibition at 10 µM [1, 9]: 11%
- inhibition at 10 µM ([2]; 48 h): 11%
- Quadrant (FIG. 5b) [3, 10]: Q4
- LPS % cell toxicity (primary rat microglia [4]; rat): 0%
- Fibrin % cell toxicity (primary rat microglia [5]; [11]): 0%

SMILES: CN1C(=O)CC(c2ccccc2)C1=O (stereo not drawn) [Phensuximide]
- inhibition at 10 µM [1, 9]: -7%
- inhibition at 10 µM ([2]; 48 h): 4%
- Quadrant (FIG. 5b) [3, 10]: Q4
- LPS % cell toxicity (primary rat microglia [4]; rat): 0%
- Fibrin % cell toxicity (primary rat microglia [5]; [11]): 1%

SMILES: CCOC(=O)c1ccc(O)cc1 [Ethylparaben]
- inhibition at 10 µM ([1]; compounds at 10 μM): -5%
- inhibition at 10 µM [2, 6]: 8%
- Quadrant (FIG. 5b) [3, 12]: Q4
- LPS % cell toxicity (primary rat microglia [4]; rat): 1%
- Fibrin % cell toxicity (primary rat microglia [5]; [13]): 1%

SMILES: OC[C@@H](O)[C@@H](O)[C@H](O)[C@@H](O)CO [Sorbitol]
- Quadrant (FIG. 5b) [3, 10]: Q4
- LPS % cell toxicity (primary rat microglia [4]; rat): 0%
- Fibrin % cell toxicity (primary rat microglia [5]; [11]): 1% and 0%

SMILES: CO[C@H]1O[C@@H]2O[C@@]3(C)CC[C@H]4[C@H](C)CC[C@@H]([C@H]1C)[C@@]24OO3 [Artemether]
- LPS % inhibition [2, 14]: 0% and 4%
- Quadrant (FIG. 5b) [3, 7]: Q4
- LPS % cell toxicity (primary rat microglia [4]; rat): 0%
- Fibrin % cell toxicity (primary rat microglia [5]; [8]): 1% and 0%

SMILES: COc1ccccc1OCC(O)CN1CCN(CC(=O)Nc2c(C)cccc2C)CC1 (stereo not drawn) [Ranolazine, Ranolazine Dihydrochloride]
- LPS % inhibition [2]: 12% and 2%
- Quadrant (FIG. 5b) [3, 10]: Q4
- LPS % cell toxicity (primary rat microglia [4]): 0%
- Fibrin % cell toxicity (primary rat microglia [5]; [11]): 0% and 1%

SMILES: COc1ccc(C[C@H](N)C(=O)N[C@H]2[C@@H](O)[C@H](n3cnc4c(N(C)C)ncnc43)O[C@@H]2CO)cc1.Cl.Cl
- LPS % inhibition [2, 6]: 124%
- Quadrant (FIG. 5b) [3, 7]: Q2
- LPS % cell toxicity (primary rat microglia [4]): 52%
- Fibrin % cell toxicity (primary rat microglia [5]; [8]): 66%

SMILES: CCCCOc1ccc(C(=O)CCN2CCCCC2)cc1 [Dyclonine]
- LPS % inhibition [2, 14]: 12% and 5%
- Quadrant (FIG. 5b) [3, 12]: Q4
- LPS % cell toxicity (primary rat microglia [4]; rat): 0%
- Fibrin % cell toxicity (primary rat microglia [5]; [13]): 1%

SMILES: CCOC(=O)c1cncn1[C@H](C)c1ccccc1 [Etomidate]
- Fibrin % inhibition ([1]; compounds at 10 μM, 10 µM): −19% and −24%
- Quadrant (FIG. 5b) [3, 12]: Q4
- LPS % cell toxicity (primary rat microglia [4]; rat): 0%
- Fibrin % cell toxicity (primary rat microglia [5]; [13]): 0%

SMILES: C#CCN(C)[C@H](C)Cc1ccccc1 [Selegiline]
- Quadrant (FIG. 5b) [3, 10]: Q4
- LPS % cell toxicity (primary rat microglia [4]; rat): 0%
- Fibrin % cell toxicity (primary rat microglia [5]; [11]): 0% and 1%

SMILES: CCN(C)C(=O)Oc1cccc([C@H](C)N(C)C)c1 [Rivastigmine]
- inhibition at 10 µM ([2]; 48 h): 5%
- Quadrant (FIG. 5b) [3, 10]: Q4
- LPS % cell toxicity (primary rat microglia [4]; rat): 0%
- Fibrin % cell toxicity (primary rat microglia [5]; [11]): 1%

SMILES: O=C(O)Cc1ccccc1 [Phenylacetic acid]
- Quadrant (FIG. 5b) [3, 10]: Q4
- LPS % cell toxicity (primary rat microglia [4]; rat): 0%
- Fibrin % cell toxicity (primary rat microglia [5]; [11]): 1%

SMILES: COc1ccc(CC2c3cc(OC)c(OC)cc3CC[N+]2(C)CCC(=O)OCCCCCOC(=O)CC[N+]2(C)CCc3cc(OC)c(OC)cc3C2Cc2ccc(OC)c(OC)c2)cc1OC (stereo not drawn) [Atracurium Besylate]
- Fibrin % inhibition ([1]; compounds at 10 μM, 10 µM): −3% and 2%
- Quadrant (FIG. 5b) [3, 7]: Q4
- LPS % cell toxicity (primary rat microglia [4]; rat): 0%
- Fibrin % cell toxicity (primary rat microglia [5]; [8]): 0% and 1%
